Measured values from PMC7906330 (PLoS ONE, 2021).

Columns and labels:
[1] = pH 7
[2] = tested on: trypsin; experiment: in vitro; conditions: isolated enzyme trypsin, pH 8.5

Row | SMILES | α-helical structure / structural stability by CD [1] | half-life [2] [min]
1 | CC[C@H](C)[C@H](NC(=O)[C@H](CC(C)C)NC(=O)[C@H](Cc1ccccc1)NC(=O)[C@H](CCC(N)=O)NC(=O)[C@H](CC(C)C)NC(=O)[C@H](CCCCN)NC(=O)CNC(=O)[C@H](Cc1ccc(O)cc1)NC(=O)[C@@H]1CCCN1C(=O)[C@@H](NC(=O)[C@@H]1CCCN1C(=O)[C@H](Cc1ccc(O)cc1)NC(=O)CNC(=O)[C@H](CCCCN)NC(=O)[C@H](Cc1c[nH]c2ccccc12)NC(=O)[C@@H]1CCCN1C(=O)CN)[C@@H](C)CC)C(=O)N[C@@H](CCCCN)C(=O)N[C@@H](CCCCN)C(=O)N[C@@H](CC(C)C)C(=O)N[C@@H](CCCCN)C(=O)N[C@@H](CCC(N)=O)C(=O)N[C@@H](CC(C)C)C(=O)N[C@@H](CCCCN)C(=O)N[C@H](C(N)=O)C(C)C [Peptide M49dN] | no α-helical structure | 5 ± 0.3
2 | CC[C@H](C)[C@H](NC(=O)[C@H](CC(C)C)NC(=O)[C@H](Cc1ccccc1)NC(=O)[C@H](CCC(N)=O)NC(=O)[C@H](CC(C)C)NC(=O)[C@H](CCCCN)NC(=O)CNC(=O)[C@H](Cc1ccc(O)cc1)NC(=O)[C@@H]1CCCN1C(=O)[C@@H](NC(=O)[C@@H]1CCCN1C(=O)[C@H](Cc1ccc(O)cc1)NC(=O)CNC(=O)[C@H](CCCCN)NC(=O)[C@H](Cc1c[nH]c2ccccc12)NC(=O)[C@@H]1CCCN1C(=O)CNC(=O)[C@H](CCC(=O)O)NC(=O)[C@H](CC(C)C)NC(=O)[C@H](C)NC(=O)[C@H](C)NC(=O)[C@H](CC(C)C)NC(=O)[C@H](CCC(=O)O)NC(=O)[C@H](C)NC(=O)[C@H](CCC(=O)O)NC(=O)[C@H](CC(C)C)NC(=O)[C@H](C)NC(=O)[C@H](C)NC(=O)[C@H](CC(C)C)NC(=O)[C@H](CCC(=O)O)NC(=O)[C@H](C)N)[C@@H](C)CC)C(=O)N[C@@H](CCCCN)C(=O)N[C@@H](CCCCN)C(=O)N[C@@H](CC(C)C)C(=O)N[C@@H](CCCCN)C(=O)N[C@@H](CCC(N)=O)C(=O)N[C@@H](CC(C)C)C(=O)N[C@@H](CCCCN)C(=O)N[C@H](C(N)=O)C(C)C [Peptide M49dS] | mostly denatured at 80 °C | 39 ± 2
